What all share (type): functional
In assay [1] the test system is Mycobacterium tuberculosis. The assay can be described thus: Antimycobacterial activity against drug-resistant Mycobacterium tuberculosis.
Assay [2] concerns Mycobacterium tuberculosis. The assay can be described thus: Antimycobacterial activity against INH-resistant Mycobacterium tuberculosis.
In assay [3] the test system is Mycobacterium tuberculosis. The assay can be described thus: Antimycobacterial activity against RIF-resistant Mycobacterium tuberculosis.
The subject of assay [4] is Mycobacterium tuberculosis. The assay can be described thus: Antimycobacterial activity against EMB-resistant Mycobacterium tuberculosis.
For assay [5], the system named is Mycobacterium tuberculosis. Nature of the assay: Antimycobacterial activity against quinolone-resistant, multidrug-resistant Mycobacterium tuberculosis.

In brackets after ≈: the same amount, converted by molar mass.

By MIC is commonly meant the least concentration at which growth counts as inhibited. Read a low MIC as inhibition by little substance. Molecule `CC(=O)NC[C@H]1CN(c2ccc(N3CCSCC3)c(F)c2)C(=O)O1` [SUTEZOLID] displayed an MIC in assay [1] of 0.03 µg/mL (≈ 0.0849 µM).
Still for that read-out and setting: for `COc1nc2ccc(Br)cc2cc1[C@@H](c1ccccc1)[C@@](O)(CCN(C)C)c1cccc2ccccc12` [BEDAQUILINE] the value was 0.003 µg/mL (≈ 0.0054 µM); for `C[C@]1(COc2ccc(N3CCC(Oc4ccc(OC(F)(F)F)cc4)CC3)cc2)Cn2cc([N+](=O)[O-])nc2O1`, 0.006 µg/mL (≈ 0.0112 µM).
Take `O=[N+]([O-])c1cn2c(n1)OC[C@@H](OCc1ccc(OC(F)(F)F)cc1)C2` [PRETOMANID]: inhibition of growth in assay [1] (MIC) required 0.015 µg/mL (≈ 0.0418 µM).
On to `CC(C)=CCC/C(C)=C/CNCCNC1C2CC3CC(C2)CC1C3` (stereo not drawn) [SQ109], for which the figures for the MIC in assay [2], in assay [3] and in assay [4] were 1.4 µM (≈ 0.463 µg/mL), 0.7 µM (≈ 0.231 µg/mL) and 0.9 µM (≈ 0.298 µg/mL), respectively.
One may read the MIC90 as an inhibitory concentration at the 90% level, which refers to growth in some studies and to a panel of isolates in others. Take `COc1c(N2CC3(CC3)[C@](C)(N)C2)c(F)cc2c(=O)c(C(=O)O)cn([C@@H]3C[C@@H]3F)c12`: the MIC90 in assay [5] was found to be 0.5 µg/mL (≈ 1.19 µM).
